Numbers after ± are expanded uncertainties.
Legend:
[1] = refractive index (Na D-line) (dimensionless); xn = mol fraction of the nth substance listed; details: 101 kPa, Liquid
[2] = xn = mol fraction of the nth substance listed; details: 101 kPa, Liquid

## CCCCn1cc[n+](C)c1.C[C@H](N)C(=O)[O-] [3-butyl-1-methyl-1H-imidazolium L-alaninate] + CO
[1]; 298.15 K, x1 = 0.0986
  refractive index: 1.3952 ± 0.0007
[1]; 298.15 K, x1 = 0.2015
  refractive index: 1.438 ± 0.0007
[1]; 298.15 K, x1 = 0.2837
  refractive index: 1.4595 ± 0.0007
[1]; 298.15 K, x1 = 0.3985
  refractive index: 1.4787 ± 0.0007
[1]; 298.15 K, x1 = 0.5105
  refractive index: 1.4914 ± 0.0007
[1]; 298.15 K, x1 = 0.6035
  refractive index: 1.4994 ± 0.0007
[1]; 298.15 K, x1 = 0.7011
  refractive index: 1.5058 ± 0.0007
[1]; 298.15 K, x1 = 0.8152
  refractive index: 1.5111 ± 0.0007
[1]; 298.15 K, x1 = 0.9139
  refractive index: 1.5147 ± 0.0007
[1]; 303.15 K, x1 = 0.0986
  refractive index: 1.3926 ± 0.0007
[1]; 303.15 K, x1 = 0.2015
  refractive index: 1.435 ± 0.0007
[1]; 303.15 K, x1 = 0.2837
  refractive index: 1.4564 ± 0.0007
[1]; 303.15 K, x1 = 0.3985
  refractive index: 1.4755 ± 0.0007
[1]; 303.15 K, x1 = 0.5105
  refractive index: 1.4883 ± 0.0007
[1]; 303.15 K, x1 = 0.6035
  refractive index: 1.4964 ± 0.0007
[1]; 303.15 K, x1 = 0.7011
  refractive index: 1.5029 ± 0.0007
[1]; 303.15 K, x1 = 0.8152
  refractive index: 1.5087 ± 0.0007
[1]; 303.15 K, x1 = 0.9139
  refractive index: 1.5126 ± 0.0007
[1]; 308.15 K, x1 = 0.0986
  refractive index: 1.3901 ± 0.0007
[1]; 308.15 K, x1 = 0.2015
  refractive index: 1.4323 ± 0.0007
[1]; 308.15 K, x1 = 0.2837
  refractive index: 1.4533 ± 0.0007
[1]; 308.15 K, x1 = 0.3985
  refractive index: 1.4723 ± 0.0007
[1]; 308.15 K, x1 = 0.5105
  refractive index: 1.485 ± 0.0007
[1]; 308.15 K, x1 = 0.6035
  refractive index: 1.493 ± 0.0007
[1]; 308.15 K, x1 = 0.7011
  refractive index: 1.5 ± 0.0007
[1]; 308.15 K, x1 = 0.8152
  refractive index: 1.5059 ± 0.0007
[1]; 308.15 K, x1 = 0.9139
  refractive index: 1.5105 ± 0.0007
[1]; 313.15 K, x1 = 0.0986
  refractive index: 1.3881 ± 0.0007
[1]; 313.15 K, x1 = 0.2015
  refractive index: 1.4297 ± 0.0007
[1]; 313.15 K, x1 = 0.2837
  refractive index: 1.4502 ± 0.0007
[1]; 313.15 K, x1 = 0.3985
  refractive index: 1.4692 ± 0.0007
[1]; 313.15 K, x1 = 0.5105
  refractive index: 1.4817 ± 0.0007
[1]; 313.15 K, x1 = 0.6035
  refractive index: 1.4898 ± 0.0007
[1]; 313.15 K, x1 = 0.7011
  refractive index: 1.497 ± 0.0007
[1]; 313.15 K, x1 = 0.8152
  refractive index: 1.5034 ± 0.0007
[1]; 313.15 K, x1 = 0.9139
  refractive index: 1.5082 ± 0.0007
[2]; 298.15 K, x1 = 0.0986
  mass density: 906.31 ± 1.1 kg/m3
  viscosity: 1.824 ± 0.29 mPa·s
[2]; 298.15 K, x1 = 0.2015
  mass density: 968.55 ± 1.1 kg/m3
  viscosity: 2.979 ± 0.39 mPa·s
[2]; 298.15 K, x1 = 0.2837
  mass density: 998.11 ± 1.1 kg/m3
  viscosity: 4.892 ± 0.61 mPa·s
[2]; 298.15 K, x1 = 0.3985
  mass density: 1024.98 ± 1.1 kg/m3
  viscosity: 8.963 ± 1.1 mPa·s
[2]; 298.15 K, x1 = 0.5105
  mass density: 1042.62 ± 1.1 kg/m3
  viscosity: 15.2 ± 1.9 mPa·s
[2]; 298.15 K, x1 = 0.6035
  mass density: 1053.47 ± 1.1 kg/m3
  viscosity: 22.23 ± 2.8 mPa·s
[2]; 298.15 K, x1 = 0.7011
  mass density: 1062.38 ± 1.1 kg/m3
  viscosity: 31.13 ± 3.9 mPa·s
[2]; 298.15 K, x1 = 0.8152
  mass density: 1070.44 ± 1.1 kg/m3
  viscosity: 45.03 ± 5.6 mPa·s
[2]; 298.15 K, x1 = 0.9139
  mass density: 1076 ± 1.1 kg/m3
  viscosity: 60.33 ± 6.1 mPa·s
[2]; 303.15 K, x1 = 0.0986
  mass density: 901.65 ± 1.1 kg/m3
  viscosity: 1.753 ± 0.28 mPa·s
[2]; 303.15 K, x1 = 0.2015
  mass density: 963.93 ± 1.1 kg/m3
  viscosity: 2.76 ± 0.37 mPa·s
[2]; 303.15 K, x1 = 0.2837
  mass density: 993.59 ± 1.1 kg/m3
  viscosity: 3.714 ± 0.47 mPa·s
[2]; 303.15 K, x1 = 0.3985
  mass density: 1020.56 ± 1.1 kg/m3
  viscosity: 6.403 ± 0.8 mPa·s
[2]; 303.15 K, x1 = 0.5105
  mass density: 1038.31 ± 1.1 kg/m3
  viscosity: 10.73 ± 1.3 mPa·s
[2]; 303.15 K, x1 = 0.6035
  mass density: 1049.27 ± 1.1 kg/m3
  viscosity: 16.01 ± 2 mPa·s
[2]; 303.15 K, x1 = 0.7011
  mass density: 1058.3 ± 1.1 kg/m3
  viscosity: 22.63 ± 2.8 mPa·s
[2]; 303.15 K, x1 = 0.8152
  mass density: 1066.5 ± 1.1 kg/m3
  viscosity: 32.91 ± 4.1 mPa·s
[2]; 303.15 K, x1 = 0.9139
  mass density: 1072.2 ± 1.1 kg/m3
  viscosity: 45.02 ± 5.6 mPa·s
[2]; 308.15 K, x1 = 0.0986
  mass density: 896.59 ± 1.1 kg/m3
  viscosity: 1.829 ± 0.29 mPa·s
[2]; 308.15 K, x1 = 0.2015
  mass density: 959.34 ± 1.1 kg/m3
  viscosity: 2.349 ± 0.33 mPa·s
[2]; 308.15 K, x1 = 0.2837
  mass density: 989.32 ± 1.1 kg/m3
  viscosity: 3.429 ± 0.44 mPa·s
[2]; 308.15 K, x1 = 0.3985
  mass density: 1016.81 ± 1.1 kg/m3
  viscosity: 5.513 ± 0.68 mPa·s
[2]; 308.15 K, x1 = 0.5105
  mass density: 1034.85 ± 1.1 kg/m3
  viscosity: 9.168 ± 1.1 mPa·s
[2]; 308.15 K, x1 = 0.6035
  mass density: 1046.07 ± 1.1 kg/m3
  viscosity: 13.4 ± 1.7 mPa·s
[2]; 308.15 K, x1 = 0.7011
  mass density: 1055.34 ± 1.1 kg/m3
  viscosity: 18.29 ± 2.3 mPa·s
[2]; 308.15 K, x1 = 0.8152
  mass density: 1063.85 ± 1.1 kg/m3
  viscosity: 26.27 ± 3.3 mPa·s
[2]; 308.15 K, x1 = 0.9139
  mass density: 1069.71 ± 1.1 kg/m3
  viscosity: 35.3 ± 4.4 mPa·s
[2]; 313.15 K, x1 = 0.0986
  mass density: 892.46 ± 1.1 kg/m3
  viscosity: 1.34 ± 0.25 mPa·s
[2]; 313.15 K, x1 = 0.2015
  mass density: 955.28 ± 1.1 kg/m3
  viscosity: 2.113 ± 0.31 mPa·s
[2]; 313.15 K, x1 = 0.2837
  mass density: 985.35 ± 1.1 kg/m3
  viscosity: 2.792 ± 0.38 mPa·s
[2]; 313.15 K, x1 = 0.3985
  mass density: 1012.89 ± 1.1 kg/m3
  viscosity: 5.197 ± 0.65 mPa·s
[2]; 313.15 K, x1 = 0.5105
  mass density: 1031.1 ± 1.1 kg/m3
  viscosity: 8.3 ± 1 mPa·s
[2]; 313.15 K, x1 = 0.6035
  mass density: 1042.42 ± 1.1 kg/m3
  viscosity: 11.91 ± 1.5 mPa·s
[2]; 313.15 K, x1 = 0.7011
  mass density: 1051.82 ± 1.1 kg/m3
  viscosity: 15.87 ± 2 mPa·s
[2]; 313.15 K, x1 = 0.8152
  mass density: 1060.49 ± 1.1 kg/m3
  viscosity: 21.92 ± 2.7 mPa·s
[2]; 313.15 K, x1 = 0.9139
  mass density: 1066.51 ± 1.1 kg/m3
  viscosity: 29.18 ± 3.6 mPa·s
